Measured values published in PubChem BioAssay (NCI).
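Compound exposure: 48 hours, 5 concentrations, 96-well plates. The concentration for 50% growth inhibition is given as GI50. At the TGI there is no net growth.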

Columns and labels:
Assay in all cases: NCI-60 cell line screen, 48 h
OVCAR-8 ovarian = tested on: OVCAR-8 ovarian
OVCAR-3 ovarian = tested on: OVCAR-3 ovarian
MALME-3M melanoma = tested on: MALME-3M melanoma
SF-295 CNS = tested on: SF-295 CNS
UO-31 renal = tested on: UO-31 renal
HCT-15 colon = tested on: HCT-15 colon
SNB-19 CNS = tested on: SNB-19 CNS
SN12C renal = tested on: SN12C renal
UACC-62 melanoma = tested on: UACC-62 melanoma
EKVX NSCLC = tested on: EKVX NSCLC
MOLT-4 leukemia = tested on: MOLT-4 leukemia
UACC-257 melanoma = tested on: UACC-257 melanoma
K-562 leukemia = tested on: K-562 leukemia
HCC-2998 colon = tested on: HCC-2998 colon
A549 NSCLC = tested on: A549 NSCLC
NCI-H23 lung = tested on: NCI-H23 lung
SK-MEL-5 melanoma = tested on: SK-MEL-5 melanoma
HOP-62 NSCLC = tested on: HOP-62 NSCLC
SK-OV-3 ovarian = tested on: SK-OV-3 ovarian
RXF 393 renal = tested on: RXF 393 renal
A498 renal = tested on: A498 renal
RPMI-8226 leukemia = tested on: RPMI-8226 leukemia
M14 melanoma = tested on: M14 melanoma
SK-MEL-2 melanoma = tested on: SK-MEL-2 melanoma
BT-549 breast = tested on: BT-549 breast
HOP-92 NSCLC = tested on: HOP-92 NSCLC
LOX IMVI melanoma = tested on: LOX IMVI melanoma
NCI-H460 lung = tested on: NCI-H460 lung
NCI-H226 lung = tested on: NCI-H226 lung
CAKI-1 renal = tested on: CAKI-1 renal
COLO 205 colon = tested on: COLO 205 colon
HL-60(TB) leukemia = tested on: HL-60(TB) leukemia
ACHN renal = tested on: ACHN renal
TK-10 renal = tested on: TK-10 renal
T-47D breast = tested on: T-47D breast
786-0 renal = tested on: 786-0 renal
DU-145 prostate = tested on: DU-145 prostate
SNB-75 CNS = tested on: SNB-75 CNS
CCRF-CEM leukemia = tested on: CCRF-CEM leukemia
KM12 colon = tested on: KM12 colon
NCI-H522 lung = tested on: NCI-H522 lung
HT29 colon = tested on: HT29 colon
SW-620 colon = tested on: SW-620 colon
OVCAR-5 ovarian = tested on: OVCAR-5 ovarian
IGROV1 ovarian = tested on: IGROV1 ovarian
SK-MEL-28 melanoma = tested on: SK-MEL-28 melanoma
MDA-MB-231 breast = tested on: MDA-MB-231 breast
MCF7 breast = tested on: MCF7 breast
HS 578T breast = tested on: HS 578T breast
SF-539 CNS = tested on: SF-539 CNS
PC-3 prostate = tested on: PC-3 prostate
MDA-MB-435 = tested on: MDA-MB-435
HCT-116 colon = tested on: HCT-116 colon
SR leukemia = tested on: SR leukemia
SF-268 CNS = tested on: SF-268 CNS

In the case of `CCOC(=O)c1ccc2[nH]c(O)c(C(=Nc3ccc(N(C)C(=O)CN4CCN(C)CC4)cc3)c3ccccc3)c2c1`, the GI50 (OVCAR-8 ovarian) is reported as 514 nM, the TGI (OVCAR-8 ovarian) is reported as 2890 nM and the GI50 (OVCAR-3 ovarian) is reported as 774 nM. For the same compound, the TGI (OVCAR-3 ovarian) was 2300 nM, the GI50 (MALME-3M melanoma) was 454 nM and the TGI (MALME-3M melanoma) was 1840 nM. It also gave a GI50 (SF-295 CNS) of 894 nM, a TGI (SF-295 CNS) of 2200 nM and a GI50 (UO-31 renal) of 323 nM. The TGI (UO-31 renal) was 1560 nM, the GI50 (HCT-15 colon) was 402 nM and the TGI (HCT-15 colon) was 1810 nM. It also gave a GI50 (SNB-19 CNS) of 743 nM, a TGI (SNB-19 CNS) of 2100 nM and a GI50 (SN12C renal) of 144 nM. For the same compound, the TGI (SN12C renal) was 1540 nM, the GI50 (UACC-62 melanoma) was 1410 nM and the TGI (UACC-62 melanoma) was 3090 nM. It also gave a GI50 (EKVX NSCLC) of 955 nM, a TGI (EKVX NSCLC) of 2740 nM and a GI50 (MOLT-4 leukemia) of 254 nM. The TGI (MOLT-4 leukemia) was 2000 nM, the GI50 (UACC-257 melanoma) was 1380 nM and the TGI (UACC-257 melanoma) was 3170 nM. The GI50 (K-562 leukemia) was 62.5 nM, the TGI (K-562 leukemia) was 2040 nM and the GI50 (HCC-2998 colon) was 655 nM. For the same compound, the TGI (HCC-2998 colon) was 2060 nM, the GI50 (A549 NSCLC) was 416 nM and the TGI (A549 NSCLC) was 2730 nM. It also gave a GI50 (NCI-H23 lung) of 467 nM, a TGI (NCI-H23 lung) of 2230 nM and a GI50 (SK-MEL-5 melanoma) of 426 nM. It also gave a TGI (SK-MEL-5 melanoma) of 1580 nM, a GI50 (HOP-62 NSCLC) of 428 nM and a TGI (HOP-62 NSCLC) of 2180 nM. For the same compound, the GI50 (SK-OV-3 ovarian) was 206 nM, the TGI (SK-OV-3 ovarian) was 1230 nM and the GI50 (RXF 393 renal) was 189 nM. For the same compound, the TGI (RXF 393 renal) was 698 nM, the GI50 (A498 renal) was 162 nM and the TGI (A498 renal) was 1060 nM. For the same compound, the GI50 (RPMI-8226 leukemia) was 598 nM, the TGI (RPMI-8226 leukemia) was 3550 nM and the GI50 (M14 melanoma) was 339 nM. It also gave a TGI (M14 melanoma) of 1530 nM, a GI50 (SK-MEL-2 melanoma) of 780 nM and a TGI (SK-MEL-2 melanoma) of 2570 nM. It also gave a GI50 (BT-549 breast) of 1040 nM, a TGI (BT-549 breast) of 2320 nM and a GI50 (HOP-92 NSCLC) of 781 nM. For the same compound, the TGI (HOP-92 NSCLC) was 2780 nM, the GI50 (LOX IMVI melanoma) was 300 nM and the TGI (LOX IMVI melanoma) was 1410 nM. For the same compound, the GI50 (NCI-H460 lung) was 810 nM, the TGI (NCI-H460 lung) was 2450 nM and the GI50 (NCI-H226 lung) was 596 nM. It also gave a TGI (NCI-H226 lung) of 2400 nM, a GI50 (CAKI-1 renal) of 103 nM and a TGI (CAKI-1 renal) of 1160 nM. It also gave a GI50 (COLO 205 colon) of 275 nM, a TGI (COLO 205 colon) of 1470 nM and a GI50 (HL-60(TB) leukemia) of 356 nM. For the same compound, the TGI (HL-60(TB) leukemia) was 1150 nM, the GI50 (ACHN renal) was 356 nM and the TGI (ACHN renal) was 1530 nM. It also gave a GI50 (TK-10 renal) of 540 nM, a TGI (TK-10 renal) of 3330 nM and a GI50 (T-47D breast) of 979 nM. The TGI (T-47D breast) was 3310 nM, the GI50 (786-0 renal) was 213 nM and the TGI (786-0 renal) was 1780 nM. For the same compound, the GI50 (DU-145 prostate) was 490 nM, the TGI (DU-145 prostate) was 2100 nM and the GI50 (SNB-75 CNS) was 178 nM. For the same compound, the TGI (SNB-75 CNS) was 2060 nM, the GI50 (CCRF-CEM leukemia) was 416 nM and the TGI (CCRF-CEM leukemia) was 8650 nM. It also gave a GI50 (KM12 colon) of 17.2 nM, a TGI (KM12 colon) of 1510 nM and a GI50 (NCI-H522 lung) of 1120 nM. For the same compound, the TGI (NCI-H522 lung) was 3340 nM, the GI50 (HT29 colon) was 185 nM and the TGI (HT29 colon) was 8870 nM. For the same compound, the GI50 (SW-620 colon) was 346 nM, the TGI (SW-620 colon) was 1620 nM and the GI50 (OVCAR-5 ovarian) was 1350 nM. The TGI (OVCAR-5 ovarian) was 3440 nM, the GI50 (IGROV1 ovarian) was 111 nM and the TGI (IGROV1 ovarian) was 1240 nM. The GI50 (SK-MEL-28 melanoma) was 1110 nM, the TGI (SK-MEL-28 melanoma) was 2480 nM and the GI50 (MDA-MB-231 breast) was 222 nM. The TGI (MDA-MB-231 breast) was 1540 nM, the GI50 (MCF7 breast) was 418 nM and the TGI (MCF7 breast) was 1990 nM. For the same compound, the GI50 (HS 578T breast) was 64.4 nM, the TGI (HS 578T breast) was 1010 nM and the GI50 (SF-539 CNS) was 247 nM. For the same compound, the TGI (SF-539 CNS) was 979 nM, the GI50 (PC-3 prostate) was 467 nM and the TGI (PC-3 prostate) was 2370 nM. It also gave a GI50 (MDA-MB-435) of 667 nM, a TGI (MDA-MB-435) of 2000 nM and a GI50 (HCT-116 colon) of 172 nM. The TGI (HCT-116 colon) was 1260 nM, the GI50 (SR leukemia) was 121 nM and the TGI (SR leukemia) was 901 nM. The GI50 (SF-268 CNS) was 413 nM and the TGI (SF-268 CNS) was 2030 nM.
